Source: US8524911B2, “3-arylamino pyridine derivatives” (Merck Serono SA, priority 2004, dated 2013)

How the values were obtained:
[1] = Microsomal stability assay, RLM; assay type: in vitro ADME; conditions: male, Sprague Dawley, pooled rat liver microsomes, pH 7.4; 3 μM compound, 0.5 mg/ml rat liver microsomes, 37° C., 2 mM NADPH; read-out: RLM t1/2
Procedure: (§1) Assay 3: Microsomal Stability Assay
(§2) Compounds were tested on their stability in human, rat and mouse liver microsomal preparations (HLM, RLM and MLM respectively). At a final concentration of 3 μM, compounds were incubated at 37° C. with 0.5 mg/ml human, rat or mouse liver microsomes in a buffer containing 50 mM phosphate, pH 7.4 and 2 mM NADPH. Pooled human liver microsomes or pooled male rat liver microsomes (Sprague Dawley) were obtained from NatuTec (Frankfurt, Germany). Incubations without NADPH served as negative controls. Reactions were stopped after 0, 15, 30, 45 or 60 min by the addition of acetonitrile and microsomes were pelleted by centrifugation (10 min at 6200×g). Supernatants were analyzed by HPLC regarding the concentration of mother compound. Finally, the half life of compounds in the regarding microsomal preparation was calculated.

human MEK1 = human MEK1 (Homo sapiens, UniProt Q02750); assay: MEK-1 Enzyme Assay (LANCE-HTRF); assay type: biochemical; conditions: 100 nM MEK1, 15 μM ATP, 300 nM ERK2, two hours; read-out: MEK inhibition
In short: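 TR-FRET readout of MEK1-catalysed ERK1 phosphorylation; after a 2 h reaction, Eu-anti-PY20 (5 nM) and anti-GST-APC (50 nM) were added in buffer with 50 mM EDTA and 0.05% BSA, then incubated 1 h in the dark.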

[2] = Microsomal stability assay, HLM; assay type: in vitro ADME; conditions: pooled human liver microsomes, pH 7.4; 3 μM compound, 0.5 mg/ml human liver microsomes, 37° C., 2 mM NADPH; read-out: HLM t1/2
Procedure: as §1, §2

human melanoma cell MeI5 = assay: Tumor cell proliferation assay (ATP Lite), MeI5; assay type: cell-based; conditions: MeI5 cells
Procedure: Assay 2: Tumor Cell Proliferation Assays (ATP Lite)
Murine colon C26, human melanoma A375 and MeI5 or human pancreatic MiaPaCa-2 cells were plated in 96 well Corning white plates (1500 cells/well for C26, and 2000 cells/well for A375, and MiaPaCa-2) and cultured overnight at 37° C. in 5% CO2. Inhibitors were serially diluted in 100% DMSO and subsequently added to cells to reach a final concentration of 0.25% DMSO. The cells were incubated for 4 days in the presence of test compounds in cell growth media (DMEM with 10% fetal bovine serum, 2 mM glutamine for C26, and MiaPaCa-2, and RPMI with 10% fetal bovine serum, 2 mM glutamine for A375). Cell proliferation was quantitated using the ATP lite cell proliferation kit (Packard). Columns 4-6 show the concentration of compounds required to induce 50% cell death (IC50 in μM) of […]. With “+” meaning 3 μM<IC50≦10 μM and “++” IC50≦3 μM and “n.d.” means not determined. Few compounds were also tested on human melanoma cell MeI5.

[3] = system: human melanoma A375 cells; assay: Tumor cell proliferation assay (ATP Lite), A375; assay type: cell-based; conditions: A-375, 96 h, 4 days
In short: (§3)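 Cells seeded at 1500/well (C26) or 2000/well (A375, MiaPaCa-2) grew overnight, then were exposed to serially diluted compounds (0.25% DMSO final) for 4 days in serum-containing DMEM or RPMI. Viability read by ATPlite luminescence; IC50 is the concentration giving 50% cell death.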

Murine colon C26 cells = assay: Tumor cell proliferation assay (ATP Lite), C26; assay type: cell-based; conditions: Mus musculus, 96 h, 4 days
In short: as §3

Caco-2 cells = assay: Caco-2 permeability assay; assay type: in vitro ADME; conditions: 10 μM, pH 7.4, 120 minutes; for Caco A-B: Papp apical to basolateral; for Caco B-A: Papp basolateral to apical
Procedure: Assay 4: Caco-2 Permeability Assay
Caco-2 cells obtained from the ATCC at passage number 27 are used. Cells (passage number 40-60) were seeded on to Millipore Multiscreen Caco-2 plates or Falcon HTS inserts at 1×10^5 cells/cm2. Cells were cultured for 20 days in DMEM and media was changed every two or three days. On day 20 the permeability study was performed.
Permeability was studied by applying compound to the apical surface of cell monolayers and measuring compound permeation into the basolateral compartment. The experiment was also performed in the reverse direction (B-A) to investigate active transport. Hanks Balanced Salt Solution (HBSS) pH 7.4 buffer with 25 mM HEPES and 10 mM glucose at 37° C. was used as the medium in permeability studies. Incubations were carried out in an atmosphere of 5% CO2 with a relative humidity of 95%.
The monolayers were prepared by rinsing both basolateral and apical surfaces twice with HBSS at 37° C. Cells were then incubated with HBSS in both apical and basolateral compartments for 40 minutes to stabilize physiological parameters.
HBSS was then removed from the apical compartment and replaced with test compound dosing solutions. The solutions were made by diluting 10 mM DMSO concentrates with HBSS to give a final test compound concentration of 10 μM (final DMSO concentration adjusted to 1%). The fluorescent integrity marker lucifer yellow was also included in the dosing solution. Analytical standards were made from dosing solutions. Test compound permeability was assessed in duplicate. On each plate compounds of known permeability characteristics were run as controls.
The apical compartment inserts were then placed into ‘companion’ plates containing fresh HBSS. For basolateral to apical (B-A) experiments the experiment was initiated by replacing buffer in the inserts then placing them in companion plates containing dosing solutions. At 120 minutes the companion plate was removed and apical and basolateral samples diluted for analysis by LC-MS/MS (the donor compartment was also sampled to permit determination of starting concentration after non-specific binding has occurred).
The integrity of the monolayers throughout the experiment is checked by monitoring lucifer yellow permeation using fluorimetric analysis. Lucifer yellow permeation was low if monolayers have not been damaged. Test and control compounds were quantified by LC-MS/MS cassette analysis using a 5-point calibration with appropriate dilution of the samples. Should lucifer yellow Papps were above QC limits in more than one well per test compound, the compound was re-tested.
The permeability coefficient for each compound (Papp) was calculated from the following equation: Papp=[dQ/dt]/[C0×A]
Whereby dQ/dt is the rate of permeation of the drug across the cells, C0 is the donor compartment concentration at time zero and A is the area of the cell monolayer. C0 is obtained from analysis of the donor compartment at the end of the incubation period.
Test compounds were grouped into low, medium or high absorption potential based on comparison with control compounds, which have known human absorption.
In addition, permeation was studied in both directions across the cells, and an asymmetry index was reported from mean A-B and B-A data. This was derived from: Papp(B-A)/Papp(A-B)
Wherein “+” means a caco A-B and caco B-A value of 1-10 and “++” means a caco A-B and caco B-A value of 11-100.

[4] = Microsomal stability assay, MLM; assay type: in vitro ADME; conditions: pH 7.4; 3 μM compound, 0.5 mg/ml mouse liver microsomes, 37° C., 2 mM NADPH; read-out: MLM t1/2
Procedure: as §1, §2

[5] = system: human pancreatic MiaPaCa-2 cells; assay: Tumor cell proliferation assay (ATP Lite), MiaPaCa-2; assay type: cell-based; conditions: MIA PaCa-2, 96 h, 4 days
In short: as §3

Tumors = conditions: patients; cited from earlier work
[6] = cited from earlier work

human MEK1, sequence (Q02750 whole entry): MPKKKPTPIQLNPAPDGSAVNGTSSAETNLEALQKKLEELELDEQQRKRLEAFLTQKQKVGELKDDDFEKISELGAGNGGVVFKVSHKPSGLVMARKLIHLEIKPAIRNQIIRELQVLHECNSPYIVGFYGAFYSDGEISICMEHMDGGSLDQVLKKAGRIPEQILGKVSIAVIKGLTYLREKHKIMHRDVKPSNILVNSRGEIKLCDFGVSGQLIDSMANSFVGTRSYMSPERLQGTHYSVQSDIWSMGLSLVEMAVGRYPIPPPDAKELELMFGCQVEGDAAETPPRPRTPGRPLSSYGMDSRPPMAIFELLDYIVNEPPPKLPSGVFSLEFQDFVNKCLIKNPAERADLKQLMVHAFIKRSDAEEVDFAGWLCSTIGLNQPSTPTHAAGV

CCONC(=O)c1ccncc1Nc1ccc(Br)cc1C [Example 4, 3-[(4-Bromo-2-methylphenyl)amino]-N-ethoxyisonicotinamide]
half-life at 3 µM [1]: 0.517 to 2 h | IC50 (human MEK1): < 1 µM | half-life at 3 µM [2]: 0.517 to 2 h | IC50 (human melanoma cell MeI5): 3 to 10 µM | IC50 [3]: ≤ 3 µM

CCONC(=O)c1ccncc1Nc1ccc(I)cc1C [Example 5, N-Ethoxy-3-[(4-iodo-2-methylphenyl)amino]isonicotinamide]
IC50 (Murine colon C26 cells): 3 to 10 µM | IC50 (human MEK1): < 1 µM | IC50 (human melanoma cell MeI5): ≤ 3 µM | IC50 [3]: ≤ 3 µM

Cc1cc(I)ccc1Nc1cnccc1C(=O)NOC[C@H](O)CO [Example 9, 3-[(2-methyl-4-iodophenyl)amino]-N-{[(2R)-2,3-dihydroxypropyl]oxy}-isonicotinamide]
half-life at 3 µM [1]: > 2 h | IC50 (Murine colon C26 cells): 3 to 10 µM | IC50 (human MEK1): < 1 µM | Caco A-B (Caco-2 cells): + (a caco A-B and caco B-A value of 1-10) | Caco B-A (Caco-2 cells): ++ (a caco A-B and caco B-A value of 11-100) | half-life at 3 µM [2]: > 2 h | half-life at 3 µM [4]: > 2 h | IC50 [3]: ≤ 3 µM

Cc1ccc(NNC(=O)c2ccncc2Nc2ccc(I)cc2F)cc1 [Example 99, 3-[(2-fluoro-4-iodophenyl)amino]-N′-(4-methylphenyl)isonicotino-hydrazide]
IC50 (Murine colon C26 cells): 3 to 10 µM | IC50 (human MEK1): < 1 µM | IC50 [5]: 3 to 10 µM | IC50 [3]: ≤ 3 µM

Cc1nccc(C(N)=O)c1Nc1ccc(I)cc1F [Example 100, 3-(2-Fluoro-4-iodo-phenylamino)-2-methyl-isonicotinamide]
IC50 (Murine colon C26 cells): 3 to 10 µM | IC50 (human MEK1): < 1 µM | IC50 [5]: 3 to 10 µM | IC50 [3]: ≤ 3 µM

O=C(NNc1cc(C(F)(F)F)cc(C(F)(F)F)c1)c1ccncc1Nc1ccc(I)cc1F [Example 101]
IC50 (Murine colon C26 cells): 3 to 10 µM | IC50 (human MEK1): < 1 µM | IC50 [5]: 3 to 10 µM | IC50 [3]: ≤ 3 µM

O=C(O)c1ccc(CCNC(=O)c2ccncc2Nc2ccc(I)cc2F)cc1 [Example 102, 4-[2-({3-[(2-fluoro-4-iodophenyl)amino]isonicotinoyl}-amino)ethyl]benzoic acid]
IC50 (Murine colon C26 cells): 3 to 10 µM | IC50 (human MEK1): < 1 µM | IC50 [5]: 3 to 10 µM | IC50 [3]: ≤ 3 µM

Cc1cc(I)ccc1Nc1cnccc1C(=O)NS(C)(=O)=O [Example 123, N-[3-(4-Iodo-2-methyl-phenylamino)-pyridine-4-carbonyl]-methanesulfonamide]
half-life at 3 µM [1]: 0.0167 to 0.5 h | IC50 (human MEK1): < 1 µM | half-life at 3 µM [2]: 0.517 to 2 h

Cc1cc(I)ccc1Nc1cnccc1C(=O)NOC[C@@H](O)CO [Example 124, N—((S)-2,3-Dihydroxy-propoxy)-3-(4-iodo-2-methyl-phenylamino)-isonicotinamide]
IC50 (Murine colon C26 cells): 3 to 10 µM | IC50 (human MEK1): < 1 µM | IC50 (human melanoma cell MeI5): ≤ 3 µM

OCCNc1nnc(-c2ccncc2Nc2ccc(Br)cc2F)o1 [Example 127, 2-{5-[3-(4-Bromo-2-fluoro-phenylamino)-pyridin-4-yl]-[1,3,4]oxadiazol-2-ylamino}-ethanol]
half-life at 3 µM [1]: > 2 h | Caco A-B (Caco-2 cells): ++ (a caco A-B and caco B-A value of 11-100) | Caco B-A (Caco-2 cells): ++ (a caco A-B and caco B-A value of 11-100) | half-life at 3 µM [2]: > 2 h | half-life at 3 µM [4]: 0.0167 to 0.5 h

CNCCNc1nnc(-c2ccncc2Nc2ccc(Br)cc2F)o1 [Example 128, N-{5-[3-(4-Bromo-2-fluoro-phenylamino)-pyridin-4-yl]-[1,3,4]oxadiazol-2-yl}-N′-methyl-ethane-1,2-diamine]
half-life at 3 µM [1]: 0.517 to 2 h | IC50 (human MEK1): < 1 µM | Caco A-B (Caco-2 cells): ++ (a caco A-B and caco B-A value of 11-100) | Caco B-A (Caco-2 cells): ++ (a caco A-B and caco B-A value of 11-100) | half-life at 3 µM [2]: > 2 h

C=CCNc1nnc(-c2ccncc2Nc2ccc(Br)cc2C)o1 [Example 129, [4-(5-Allylamino-[1,3,4]oxadiazol-2-yl)-pyridin-3-yl]-(4-bromo-2-methyl-phenyl)-amine]
half-life at 3 µM [1]: 0.517 to 2 h | IC50 (human MEK1): < 1 µM | Caco A-B (Caco-2 cells): ++ (a caco A-B and caco B-A value of 11-100) | Caco B-A (Caco-2 cells): ++ (a caco A-B and caco B-A value of 11-100) | half-life at 3 µM [2]: > 2 h | half-life at 3 µM [4]: > 2 h

O=C(NOCC1CC1)c1ccc(F)c(F)c1Nc1ccc(I)cc1Cl [PD-184352]
efficacy in clinical phase II trials (Tumors): lacking efficacy | bioavailability [6]: low
